Source: patent US8859625B2, “Methods to prepare penta-1,4-dien-3-ones and substituted cyclohexanones and derivatives with antitumoral and antiparasitic properties, the compounds and their uses” (Universidade Bandeirante de Sao Paulo-Academia, Paulista …, priority 2006, dated 2014)

Legend:
Assay type in all cases: cell-based
[1] = tested on: Leishmania (isolate L.C.L.) promastigotes; assay: Promastigote viability by MTT, L.C.L. isolate, Warren medium; details: for O.D. (optical density at 595/690 nm, average of duplicates): Warren medium
Experimental: (§1) Viability and/or cellular proliferative assays of promastigote and amastigote forms are also performed by the MTT (diphenyl tetrazolium 3-[4,5-dimethylthiazol-2il]2,5-bromide) method as described by Moreira, et al. (Moreira, M. E. C., Del Portillo, H. A., Milder, R. V., Balanco, J. M. F. and Barcinski, M. A. Heat shock induction of apoptosis in promastigotes of the unicellular organism Leishmania (Leishmania) amazonensis, J. Cell Physiol 167, 305-313, 1996), modified.
(§2) After incubation of parasitic forms with the compounds, as described above, for predetermined periods of time for each experiment (24, 48, 72 hours, etc.), an 1.0 mL aliquot of cellular suspension is collected from each culture tube or vial and transferred to microcentrifuge tubes, where they are centrifuged at 14.000 rpm for 3 minutes, the culture medium is aspirated and discharged. To the sedimented cells are add 200 μL of PBS. After that, the volume in PBS of the cellular suspensions is splitted into two wells (duplicates of 100 μL each) of a 96 well culture plate. To each duplicate, […] of MTT (5 mg/mL stock solution, […]) are added. After 1 h or 1 h 30 min, at a temperature of 22° C. (promastigotes) or 34° C. (amastigotes), 100 μL of 10% SDS are added to each well to interrupt the reaction, to lyse the cells and to dissolve the formazan crystals, resulting in an homogeneous blue solution appropriate to the absorbance measure by a spectrophotometer for culture microplates (3550 BIORAD model, Richmond, Calif.), at 595 nm as test wavelength and 690 nm as the reference wavelength.
(§3) The optical density (O.D.) values correspond to MTT enzymatic reduction by the metabolic active cells. Consequently, the O.D. is directly proportional to the number of viable cells of the cellular suspension. The progressive increase of O.D. indicates cellular proliferation. Results are expressed as arithmetic average of the optical density duplicates.
(§4) This experiment is developed in the Warren medium using an initial inoculum of 2.0×10^6/mL of the medium for the isolates. Cultures were at the day 7^h of passage and at the final exponential phase growth (day 6 of incubation). The results of viability determination for the Leishmania (isolate L.C.L.) promastigotes, incubated in Warren medium and in the presence of HB-1, are shown in the next Table and in FIG. 36. The culture final volume is of 5 mL and the MTT reactions are processed in 1 h and 30 minutes of incubation, beginning with 1.0 mL of culture.

[2] = tested on: promastigotes of Leishmania (isolate D.C.L.); assay: Promastigote viability by MTT, D.C.L. isolate, Warren medium; details: for O.D. (optical density at 595/690 nm wavelength): Warren medium
Experimental: as §1, §2, §3, §4
In the next Table and in FIG. 37 are shown the results of viability determination for the promastigotes of Leishmania (isolate D.C.L.) incubated in Warren medium in the presence of HB-1.

[3] = tested on: amastigote-like forms of Leishmania (L) amazonensis; assay: Viability of amastigote-like forms from axenic culture by MTT; details: for O.D. (optical density): amastigote-like forms
Experimental: Compounds are solubilized with dimethyl sulfoxide (DMSO) to produce a stock solution from which samples with different concentrations are obtained, by adding the culture medium in sufficient volume as required to attain the first desired concentration with the other concentrations being obtained by serial dilution of this first one, at ratio 2. The cultures are incubated at 22° C. or 34° C. for promastigotes and amastigotes, respectively.
as §1, §2, §3
Considering that the amastigote forms are those that multiply inside a vertebrate host and, consequently, are responsible for the disease, it is indispensable to evaluate the viability of these forms when incubated with HB-1.
This evaluation is performed as previously described and by applying the amastigote forms obtained from an axenic culture.

COc1cc(C=CC(=O)C=Cc2ccc(O)c(OC)c2)ccc1O [HB-1, 1,5-Bis-(4-hydroxy-3-methoxy-phenyl)-penta-1,4-dien-3-one]
effect in words ([1]; HB-1 5 μg/mL): partial inhibition of proliferation | O.D. (optical density at 595/690 nm, average of duplicates) ([1]; HB-1 5 μg/mL, 24 hours): 0.489 | O.D. (optical density at 595/690 nm, average of duplicates) ([1]; HB-1 5 μg/mL, 48 hours): 0.452 | O.D. (optical density at 595/690 nm, average of duplicates) ([1]; HB-1 5 μg/mL, 72 hours): 1.346 | O.D. (optical density at 595/690 nm, average of duplicates) ([1]; HB-1 5 μg/mL, 96 hours): 1.834 | effect in words ([1]; HB-1 10 μg/mL): leishmaniostatic effect | O.D. (optical density at 595/690 nm, average of duplicates) ([1]; HB-1 10 μg/mL, 24 hours): 0.177 | O.D. (optical density at 595/690 nm, average of duplicates) ([1]; HB-1 10 μg/mL, 48 hours): 0.153 | O.D. (optical density at 595/690 nm, average of duplicates) ([1]; HB-1 10 μg/mL, 72 hours): 0.176 | O.D. (optical density at 595/690 nm, average of duplicates) ([1]; HB-1 10 μg/mL, 96 hours): 0.187 | effect in words ([1]; HB-1 20 μg/mL): leishmanicide | O.D. (optical density at 595/690 nm, average of duplicates) ([1]; HB-1 20 μg/mL, 24 hours): 0.056 | O.D. (optical density at 595/690 nm, average of duplicates) ([1]; HB-1 20 μg/mL, 48 hours): 0.014 | O.D. (optical density at 595/690 nm, average of duplicates) ([1]; HB-1 20 μg/mL, 72 hours): 0.012 | O.D. (optical density at 595/690 nm, average of duplicates) ([1]; HB-1 20 μg/mL, 96 hours): 0.012 | O.D. (optical density at 595/690 nm wavelength) ([2]; HB-1 5 μg/mL, 24 hours): 0.299 | O.D. (optical density at 595/690 nm wavelength) ([2]; HB-1 5 μg/mL, 48 hours): 0.682 | O.D. (optical density at 595/690 nm wavelength) ([2]; HB-1 5 μg/mL, 72 hours): 0.785 | O.D. (optical density at 595/690 nm wavelength) ([2]; HB-1 10 μg/mL, 24 hours): 0.083 | O.D. (optical density at 595/690 nm wavelength) ([2]; HB-1 10 μg/mL, 48 hours): 0.059 | O.D. (optical density at 595/690 nm wavelength) ([2]; HB-1 10 μg/mL, 72 hours): 0.017 | O.D. (optical density at 595/690 nm wavelength) ([2]; HB-1 10 μg/mL, 96 hours): 0.016 | O.D. (optical density at 595/690 nm wavelength) ([2]; HB-1 20 μg/mL, 24 hours): 0.025 | O.D. (optical density at 595/690 nm wavelength) ([2]; HB-1 20 μg/mL, 48 hours): 0.012 | O.D. (optical density at 595/690 nm wavelength) ([2]; HB-1 20 μg/mL, 72 hours): 0.016 | O.D. (optical density at 595/690 nm wavelength) ([2]; HB-1 20 μg/mL, 96 hours): 0.013 | effect in words ([2]; HB-1 from 10 μg/mL): leishmanicide effect | inhibition of cellular activity of amastigotes ([3]; 10 μg/mL and 20 μg/mL, first 24 hours): 100% | O.D. (optical density) ([3]; HB-1 5 μg/mL, 24 hours): 0.16 | O.D. (optical density) ([3]; HB-1 5 μg/mL, 48 hours): 0.012 | O.D. (optical density) ([3]; HB-1 5 μg/mL, 72 hours): 0.012 | O.D. (optical density) ([3]; HB-1 10 μg/mL, 24 hours): 0.010 | O.D. (optical density) ([3]; HB-1 10 μg/mL, 48 hours): 0.014 | O.D. (optical density) ([3]; HB-1 10 μg/mL, 72 hours): 0.014 | O.D. (optical density) ([3]; HB-1 20 μg/mL, 24 hours): 0.009 | O.D. (optical density) ([3]; HB-1 20 μg/mL, 48 hours): 0.012 | O.D. (optical density) ([3]; HB-1 20 μg/mL, 72 hours): 0.016 | parasites nonviable ([3]; all assayed concentrations, first 48 hours): 100%
